We go through 2 compounds from US20110152166A1, “METHOD OF MODULATION OF PROTEIN PHOSPHORYLATION-DEPENDENT CONFORMATIONAL TRANSITIONS WITH LOW MOLECULAR WEIGHT COMPOUNDS” (priority 2006, published 2011).

Positions count from the first letter of the chain named. Ends that are not written are not given here.

Test in all cases: PDK1 activity assay with T308tide
Holding throughout (assay type): biochemical

One assay concerns the target T1, GST-PDK1 [Ser135Ala] (Homo sapiens, UniProt O15530, S135A).
T1 construct: different protein constructs, comprising the full length protein or the catalytic domain alone; made in house; host or cells: HEK293 cells (pEBG-2T-PDK1 mutant)
T1 sequence (O15530 1-556 S135A): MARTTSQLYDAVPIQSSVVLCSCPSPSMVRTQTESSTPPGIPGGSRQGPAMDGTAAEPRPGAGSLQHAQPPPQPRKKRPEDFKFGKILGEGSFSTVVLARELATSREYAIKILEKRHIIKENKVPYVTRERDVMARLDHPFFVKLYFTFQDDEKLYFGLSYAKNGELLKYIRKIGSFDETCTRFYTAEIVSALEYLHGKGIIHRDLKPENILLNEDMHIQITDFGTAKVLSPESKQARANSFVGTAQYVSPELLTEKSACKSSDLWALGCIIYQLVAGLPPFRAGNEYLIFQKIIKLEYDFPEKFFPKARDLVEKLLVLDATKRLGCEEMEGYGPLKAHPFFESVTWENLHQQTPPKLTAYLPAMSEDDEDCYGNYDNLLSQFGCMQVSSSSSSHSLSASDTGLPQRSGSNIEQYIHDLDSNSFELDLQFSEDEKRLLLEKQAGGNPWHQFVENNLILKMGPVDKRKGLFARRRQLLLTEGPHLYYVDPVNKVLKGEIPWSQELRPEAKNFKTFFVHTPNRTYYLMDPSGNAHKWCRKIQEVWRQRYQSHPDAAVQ

The next assay concerns the target T2, GST-PDK1 [Gln150Lys] (Homo sapiens, UniProt O15530, Q150K).
T2 construct: different protein constructs, comprising the full length protein or the catalytic domain alone; made in house; host or cells: HEK293 cells (pEBG-2T-PDK1 mutant)
T2 sequence (O15530 1-556 Q150K): T1 sequence (O15530 1-556 S135A) with A135S, Q150K

The target of the next assay is T3, GST-PDK1 [Val124Leu] (Homo sapiens, UniProt O15530, V124L).
T3 construct: different protein constructs, comprising the full length protein or the catalytic domain alone; made in house; host or cells: HEK293 cells (pEBG-2T-PDK1 mutant)
T3 sequence (O15530 1-556 V124L): T1 sequence (O15530 1-556 S135A) with V124L, A135S

“REPRILSEEEQEMFRDFDYIADWC [PIFtide, reference compound]”: the figures for the AC50 at GST-PDK1 [Ser135Ala], on GST-PDK1 [Gln150Lys] and at GST-PDK1 [Val124Leu] were 0.18 ± 0.02 µM, 0.29 ± 0.05 µM and 0.35 ± 0.2 µM, respectively. The Max. activity on GST-PDK1 [Ser135Ala] is on record as 3.4 ± 0.09 U/mg; at GST-PDK1 [Gln150Lys], 2.7 ± 0.2 U/mg; at GST-PDK1 [Val124Leu], 0.59 ± 0.04 U/mg.
As for `O=C(O)CSC(CC(=O)c1ccc(Cl)cc1)c1ccccc1` (stereo not drawn) [Compound 1], the AC50 at GST-PDK1 [Ser135Ala] stood at 109 ± 33 µM; on GST-PDK1 [Gln150Lys] it was 15 ± 4 µM; at GST-PDK1 [Val124Leu], 180 ± 60 µM. Also, the figures for the Max. activity at GST-PDK1 [Ser135Ala], on GST-PDK1 [Gln150Lys] and on GST-PDK1 [Val124Leu] were 2.82 ± 0.4 U/mg, 1.37 ± 0.06 U/mg and 1.1 ± 0.13 U/mg, respectively.
